Numbers after ± are expanded uncertainties.
Conditions: 100 kPa, Liquid, Parallel plate method

| thermal conductivity (283.15 K) [W/m/K] | thermal conductivity (303.15 K) [W/m/K] | thermal conductivity (323.15 K) [W/m/K] | thermal conductivity (343.15 K) [W/m/K] | SMILES |
| --- | --- | --- | --- | --- |
| 0.239 ± 0.02 | 0.248 ± 0.02 | 0.257 ± 0.02 | 0.266 ± 0.02 | OCCO [1,2-ethanediol] |
| 0.206 ± 0.02 | 0.207 ± 0.02 | 0.206 ± 0.02 | 0.207 ± 0.02 | CC(O)CO (stereo not drawn) [1,2-propanediol] |
